# Reference: patent US20220008401A1, “COMPOSITIONS AND METHODS FOR TREATING PULMONARY DISEASE WITH MATRIX METALLOPROTEINASE INHIBITORS” (DARSHA LLC, priority 2019, published 2022)
# Legend:
# LPS injured mice [1] = experiment: Lung injury (inflammation) score of H&E lung sections, LPS-injured mice, single inhaled dose; type: in vivo, C57BL/6J mice; conditions: LPS 1.5 mg/kg intranasal; 24 hours later single aerosolized dose 35 mg/kg; sacrifice one hour after; vs LPS alone p<0.001
# Procedure: We next determined if inhaled Compound 1 attenuated specific features of acute inflammatory lung injury that were also observed in response to LPS. Again, 12-week-old male C57BL/6J mice were intranasally instilled with LPS (1.5 mg/kg of 1 mg/ml solution in sterile PBS). 24 hours later, these mice received a single dose of aerosolized MMP inhibitor (Compound 1, dissolved in PBS, 35 mg/kg) or PBS alone and a tail vein injection of FITC labeled albumin (FITC-albumin). One hour following nebulization, the mice were sacrificed. The left lung was fixed in formalin from each animal, paraffin embedded, sectioned and stained with H&E to examine histological features indicative of lung injury. These were achieved by visually scoring each slide based on a lung injury scoring system developed by the American Thoracic Society for animal models of inflammatory lung injury.
# LPS injured mice [2] = experiment: Lung wet:dry weight ratio, LPS-injured mice, q6h x 4 doses; type: in vivo; conditions: LPS then Compound 1 every 6 hours for 4 doses; right lung; n=5 (LPS alone 19.44±1.6, PBS 7.5±0.12)
# Procedure: Based on the data, the effect of a 6 hour dosing interval (q6h) of Compound 1 on injured mice lung was explored. FIG. 8B schematizes the experimental LPS injury/Compound 1 treatment workflow utilized unless otherwise indicated. Briefly, mice were nasally instilled with LPS (1.5 mg/kg) followed by initiation of Compound 1 treatment 24 hours later (i.e., after a 24 hours rest period). Four doses of Compound 1 (12 mg/kg) were administered via nebulizer every 6 hours to maintain a constant presence of compound in the lung. PBS was administered as a control. Mice were sacrificed 6 hours following the fourth dose. A major feature of ALI/ARDS is non-cardiogenic pulmonary edema resulting in profound hypoxemia. […] We next investigated if attenuation of edema occurred with the alternative treatment schedule where LPS-injured mice were treated with Compound 1 every 6 hours for 4 doses. Total lung edema was determined by assessing lung wet:dry ratios under each experimental condition. Following completion of Compound 1 treatment, the right lung was removed and immediately weighed followed by desiccation for 72 hours and weighed a second time to determine the dry weight. Wet:dry weight ratios were then calculated.
# LPS injured mice [3] = experiment: FITC-albumin exclusion assay (BALF:serum), LPS-injured mice, q6h x 4 doses; type: in vivo; conditions: LPS then inhaled Compound 1 every 6 hours for 4 doses; n=5 (LPS alone 1.04±0.13, PBS 0.44±0.11)
# Procedure: Based on the data, the effect of a 6 hour dosing interval (q6h) of Compound 1 on injured mice lung was explored. FIG. 8B schematizes the experimental LPS injury/Compound 1 treatment workflow utilized unless otherwise indicated. Briefly, mice were nasally instilled with LPS (1.5 mg/kg) followed by initiation of Compound 1 treatment 24 hours later (i.e., after a 24 hours rest period). Four doses of Compound 1 (12 mg/kg) were administered via nebulizer every 6 hours to maintain a constant presence of compound in the lung. PBS was administered as a control. Mice were sacrificed 6 hours following the fourth dose. It was next determined if LPS induced edema was a result of increased permeability of the pulmonary vascular barrier. This was achieved using a FITC-albumin exclusion assay. Approximately 1 hour prior to sacrifice, mice received a tail vein injection of 3 mg of FITC labeled albumin. BALF and serum were collected and the amount of labeled albumin in each sample (BALF FITC Albumin:serum FITC Albumin) was determined using a fluorescent plate reader.
# neutrophils [4] = experiment: BrdU pulse-chase labeling of newly synthesized neutrophils in BALF of LPS-exposed mice; type: in vivo; conditions: LPS treated mice, n=3 (49.3±0.87% without treatment)
# Procedure: To examine the hypothesis that reduced neutrophil counts in response to Compound 1 treatment resulted from decreased cell migration from the pulmonary circulation, pulse-chase labeling of newly synthesized neutrophils in LPS exposed animals was performed. LPS or saline was nasally instilled into mice which were then allowed to recover for 24 hours. Following this, an intraperitoneal injection (IP injections) of bromodeoxyuridine (BrdU) was administered and animals were allowed to rest for 2.5 hours. A 2.5-hour rest period was selected since it was previously determined that BrdU labeled neutrophils take about 3 hours to reach and infiltrate the lungs. At 2.5 hours animals received inhaled Compound 1 or PBS and were sacrificed at either 15- or 45 minutes post-treatment. Cytospin slides were generated from BALF and immunofluorescently stained for BrdU and MPO to identify neutrophils. Confocal images were taken of cytospins stained for BrdU and MPO (myeloperoxidase). The number of BrdU (+) and BrdU (−) neutrophils was quantified.
# human neutrophils = experiment: Human neutrophil migration in modified Boyden chamber (FMLP chemoattractant); type: cell-based; conditions: for neutrophil migration into the basal chamber: 1 hour
# Procedure: To determine if this effect was relevant in humans we utilized a modified Boyden chamber to assess the effect of Compound 1 on migration of human neutrophils. […] The basal chamber was filled with media containing the chemoattractant N-Formylmethionyl-leucyl-phenylalanine (FMLP) or vehicle. The apical chamber was seeded with ˜100,000 neutrophils with the addition of Compound 1 or vehicle. In the basal chamber, the neutrophils were allowed to migrate for 1 hour after which the basal chamber was fixed, stained with DAPI, and photographed. Five fields per well were imaged and the number of neutrophils counted using NIH ImageJ.
# neutrophils [5] = experiment: MTT assay of neutrophil viability; type: cell-based, human; conditions: 1 hour exposure, high and low concentrations
# Procedure: To ensure the observed effects were not a result of reduced neutrophil viability, an MTT assay was utilized. Neutrophils were exposed to Compound 1 for 1 hour followed by addition of MTT to the culture medium for 30 minutes. Cells were then solubilized in DMSO and the absorbances were read on a microplate reader.
# integrin β1 = experiment: Integrin β1 immunofluorescent staining of human neutrophils; type: cell-based; conditions: Compound 1 treatment for 1 hour, n=3, p<0.05
# Text: Regulation of cell motility by the integrin β1 subunit is well-documented in multiple cell types, with several lines of evidence indicating MMPs play a significant role in expression and cellular localization of integrin β1 during neutrophil migration (Dumin J A, et al. Pro-collagenase-1 (matrix metalloproteinase-1) binds the alpha(2)beta(1) integrin upon release from keratinocytes migrating on type I collagen. J Biol Chem 2001; 276(31); Ugarte-Berzal E, et al. A 17-residue sequence from the matrix metalloproteinase-9 (MMP-9) hemopexin domain binds alpha4beta1 integrin and inhibits MMP-9-induced functions in chronic lymphocytic leukemia B cells. J Biol Chem 2012; 287(33)). To determine if MMP inhibition by Compound 1 interfered with integrin β1 expression in human neutrophils, cells were seeded onto glass chamber slides followed by Compound 1 treatment for 1 hour. Cells were fixed and immunofluorescent staining was performed for integrin β1 and staining intensity was measured using NIH ImageJ and standardized to the number of cells per field.
substance,measurement,setting,value
"butanamide, N-hydroxy-2-[[(4-hydroxyphenyl)sulfonyl](3-pyridinylmethyl)amino]-3-methyl, hydrochloride, (2R) [Compound 1]",lung injury score (Inflammation Score),LPS injured mice [1],reduces the lung injury score
same,wet:dry weight ratio,LPS injured mice [2],11.80±0.86
same,FITC-albumin BALF:serum ratio,LPS injured mice [3],0.49±0.13
same,percentage of BrdU (+) neutrophils,neutrophils [4]; 15 minutes post inhaled treatment,16.7±3.6%
same,percentage of BrdU (+) neutrophils,neutrophils [4]; 45 minutes post inhaled treatment,22.7±2.5%
same,neutrophil migration into the basal chamber,"human neutrophils; 10 nm CGS, no FMLP, n=4",233±61 cells
same,neutrophil migration into the basal chamber,"human neutrophils; 20 nm CGS, no FMLP, n=4",293±148 cells
same,inhibition of FMLP-induced neutrophil migration,human neutrophils; FMLP + 10 nm Compound 1,did not achieve significance
same,neutrophil migration into the basal chamber,"human neutrophils; FMLP+20 nm CGS, n=4 (FMLP alone 4280±480)",2819±362 cells
same,"neutrophil viability (MTT, reductive capacity)",neutrophils [5],no significant effect on neutrophil viability
same,integrin β1 fluorescence intensity per cell,integrin β1,2.88±1.23 RFU
